{"source": "patent US20250206732A1", "about": "“COMPOUNDS AND METHODS FOR THE TARGETED DEGRADATION OF KRAS” (Arvinas Operations, Inc., priority 2022, published 2025)", "target": "T1, AsPC-1 HiBiT-KRASG12D (Homo sapiens, UniProt P01116, G12D)", "T1 construct": "insert the HiBiT tag onto the N-terminus of one or more of the endogenous KRAS alleles; endogenous in cells; host or cells: AsPC-1 (ATCC CRL-1682), CRISPR-Cas9 knock-in clone, one tagged allele", "T1 sequence (P01116 1-188 isoform P01116-2 G12D)": "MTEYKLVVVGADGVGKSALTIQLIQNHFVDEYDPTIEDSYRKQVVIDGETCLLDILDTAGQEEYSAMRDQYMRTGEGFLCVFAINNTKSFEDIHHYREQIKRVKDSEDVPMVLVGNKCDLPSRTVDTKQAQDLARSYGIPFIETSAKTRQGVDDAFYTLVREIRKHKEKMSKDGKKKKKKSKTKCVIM", "assay": "HiBiT degradation assay (G12D), AsPC-1 HiBiT-KRASG12D cells", "type": "cell-based", "conditions": "24 hours treatment; for Dmax: ASPC1, AsPC-1 HiBiT-KRASG12D cells, maximum degradation observed; for DC50: AsPC-1 HiBiT-KRASG12D cells, HiBiT luminescence", "method_in_brief": "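AsPC-1 cells (homozygous G12D) carrying a CRISPR knock-in N-terminal HiBiT tag on endogenous KRAS were treated with compounds for 24 hours at 37° C, 5% CO2, in triplicate. Alamar blue viability was read first, then cells were washed and lysed with Nano-Glo HiBiT reagent for 45 minutes before luminescence reading.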", "data": [{"smiles": "CCc1cccc2cc(O)cc(-c3ncc4c(N5CC6CCC(C5)N6)nc(OCCN5CCN(CC6CN(c7cc([C@H](C(=O)N8C[C@H](O)C[C@H]8C(=O)N[C@@H](C)c8ccc(-c9scnc9C)cc8)C(C)C)on7)C6)CC5)nc4c3F)c12", "note": "[Compound 220, (2S,4R)-1-[(2R)-2-(3-{3-[(4-{2-[(4-{3,8-diazabicyclo[3.2.1]octan-3-yl}-7-(8-ethyl-3-hydroxynaphthalen-1-yl)-8-fluoropyrido[4,3-d]pyrimidin-2-yl)oxy]ethyl}piperazin-1-yl)methyl]azetidin-1-yl}-1,2-oxazol-5-yl)-3-methylbutanoyl]-4-hydroxy-N-[(1S)-1-[4-(4-methyl-1,3-thiazol-5-yl)phenyl]ethyl]pyrrolidine-2-carboxamide]", "values": [{"measurement": "Dmax", "result": "80 to 100", "unit": "%"}, {"measurement": "DC50", "result": "< 600", "unit": "nM"}]}, {"smiles": "CCc1cccc2cc(O)cc(-c3ncc4c(N5CC6CCC(C5)N6)nc(OCCN5CCC(CC6CN(CC(=O)N[C@H](C(=O)N7C[C@H](O)C[C@H]7C(=O)N[C@@H](C)c7ccc(-c8scnc8C)cc7)C(C)(C)C)C6)CC5)nc4c3F)c12", "note": "[Compound 273, (2S,4R)-1-[(2S)-2-(2-{3-[(1-{2-[(4-{3,8-diazabicyclo[3.2.1]octan-3-yl}-7-(8-ethyl-3-hydroxynaphthalen-1-yl)-8-fluoropyrido[4,3-d]pyrimidin-2-yl)oxy]ethyl}piperidin-4-yl)methyl]azetidin-1-yl}acetamido)-3,3-dimethylbutanoyl]-4-hydroxy-N-[(1S)-1-[4-(4-methyl-1,3-thiazol-5-yl)phenyl]ethyl]pyrrolidine-2-carboxamide]", "values": [{"measurement": "Dmax", "result": "80 to 100", "unit": "%"}, {"measurement": "DC50", "result": "< 600", "unit": "nM"}]}, {"smiles": "CCc1cccc2cc(O)cc(-c3ncc4c(N5CC6CCC(C5)N6)nc(OCCN5CCC(OC6CN(c7cc([C@@H](C(=O)N8C[C@H](O)C[C@H]8C(=O)N[C@@H](C)c8ccc(-c9scnc9C)cc8)C(C)C)on7)C6)CC5)nc4c3F)c12", "note": "[Compound 216, (2S,4R)-1-[(2S)-2-(3-{3-[(1-{2-[(4-{3,8-diazabicyclo[3.2.1]octan-3-yl}-7-(8-ethyl-3-hydroxynaphthalen-1-yl)-8-fluoropyrido[4,3-d]pyrimidin-2-yl)oxy]ethyl}piperidin-4-yl)oxy]azetidin-1-yl}-1,2-oxazol-5-yl)-3-methylbutanoyl]-4-hydroxy-N-[(1S)-1-[4-(4-methyl-1,3-thiazol-5-yl)phenyl]ethyl]pyrrolidine-2-carboxamide]", "values": [{"measurement": "Dmax", "result": "20 to 60", "unit": "%"}, {"measurement": "DC50", "result": "1000 to 3000", "unit": "nM"}]}, {"smiles": "C#Cc1c(F)ccc2cc(O)cc(-c3ncc4c(N5CC6CCC(C5)N6)nc(OCCN5CCC(CC6CCN(c7cc([C@@H](C(=O)N8C[C@H](O)C[C@H]8C(=O)N[C@@H](C)c8ccc(-c9ccnn9C)cc8)C(C)C)on7)CC6)CC5)nc4c3F)c12", "note": "[Compound 169, (2S,4R)-1-[(2S)-2-(3-{4-[(1-{2-[(4-{3,8-diazabicyclo[3.2.1]octan-3-yl}-7-(8-ethynyl-7-fluoro-3-hydroxynaphthalen-1-yl)-8-fluoropyrido[4,3-d]pyrimidin-2-yl)oxy]ethyl}piperidin-4-yl)methyl]piperidin-1-yl}-1,2-oxazol-5-yl)-3-methylbutanoyl]-4-hydroxy-N-[(1S)-1-[4-(1-methyl-1H-pyrazol-5-yl)phenyl]ethyl]pyrrolidine-2-carboxamide]", "values": [{"measurement": "Dmax", "result": "20 to 60", "unit": "%"}, {"measurement": "DC50", "result": "600 to 1000", "unit": "nM"}]}, {"smiles": "CCc1cccc2cncc(-c3ncc4c(N5CC6CCC(C5)N6)nc(OCCN5CCC(COc6cc([C@H](C(=O)N7C[C@H](O)C[C@H]7C(=O)N[C@@H](C)c7ccc(-c8scnc8C)cc7)C(C)C)on6)CC5)nc4c3F)c12", "note": "[Compound 304]", "values": [{"measurement": "DC50", "result": "> 3000", "unit": "nM"}]}, {"smiles": "CCc1cccc2cc(O)cc(-c3ncc4c(N5CC6CCC(C5)N6)nc(OC[C@@]56CCCN5[C@H](COC(=O)N5CC(COc7cc([C@@H](C(=O)N8C[C@H](O)C[C@H]8C(=O)N[C@@H](C)c8ccc(-c9scnc9C)cc8)C(C)C)on7)C5)CC6)nc4c3F)c12", "note": "[Compound 115, [(3S,7aS)-7a-{[(4-{3,8-diazabicyclo[3.2.1]octan-3-yl}-7-(8-ethyl-3-hydroxynaphthalen-1-yl)-8-fluoropyrido[4,3-d]pyrimidin-2-yl)oxy]methyl}-hexahydro-1H-pyrrolizin-3-yl]methyl 3-[({5-[(2S)-1-[(2S,4R)-4-hydroxy-2-{[(1S)-1-[4-(4-methyl-1,3-thiazol-5-yl)phenyl]ethyl]carbamoyl}pyrrolidin-1-yl]-3-methyl-1-oxobutan-2-yl]-1,2-oxazol-3-yl}oxy)methyl]azetidine-1-carboxylate]", "values": [{"measurement": "Dmax", "result": "20 to 60", "unit": "%"}, {"measurement": "DC50", "result": "600 to 1000", "unit": "nM"}]}, {"smiles": "CCc1cccc2cc(O)cc(-c3ncc4c(N5CC6CCC(C5)N6)nc(OCCN5CCC(C)(CCOc6cc([C@H](C(=O)N7C[C@H](O)C[C@H]7C(=O)N[C@@H](C)c7ccc(-c8scnc8C)cc7)C(C)C)on6)CC5)nc4c3F)c12", "note": "[Compound 237]", "values": [{"measurement": "DC50", "result": "> 3000", "unit": "nM"}]}, {"smiles": "CCc1cccc2cc(O)cc(-c3ncc4c(N5CC6CCC(C5)N6)nc(OC[C@]56CCCN5[C@H](COC(=O)N5CC(Oc7cc([C@H](C(=O)N8C[C@H](O)C[C@H]8C(=O)N[C@@H](C)c8ccc(-c9scnc9C)cc8)C(C)C)on7)C5)CC6)nc4c3F)c12", "note": "[Compound 128, [(3S,7aR)-7a-{[(4-{3,8-diazabicyclo[3.2.1]octan-3-yl}-7-(8-ethyl-3-hydroxynaphthalen-1-yl)-8-fluoropyrido[4,3-d]pyrimidin-2-yl)oxy]methyl}-hexahydro-1H-pyrrolizin-3-yl]methyl 3-({5-[(2R)-1-[(2S,4R)-4-hydroxy-2-{[(1S)-1-[4-(4-methyl-1,3-thiazol-5-yl)phenyl]ethyl]carbamoyl}pyrrolidin-1-yl]-3-methyl-1-oxobutan-2-yl]-1,2-oxazol-3-yl}oxy)azetidine-1-carboxylate]", "values": [{"measurement": "Dmax", "result": "80 to 100", "unit": "%"}, {"measurement": "DC50", "result": "< 600", "unit": "nM"}]}, {"smiles": "CCc1cccc2cc(O)cc(-c3ncc4c(N5CC6CCC(C5)N6)nc(OCCN5CC[C@H]6[C@H](CCN6c6cc([C@H](C(=O)N7C[C@H](O)C[C@H]7C(=O)N[C@@H](C)c7ccc(-c8scnc8C)cc7)C(C)C)on6)C5)nc4c3F)c12", "note": "(relative stereo) [Compound 73, (2S,4R)-1-[(2R*)-2-{3-[(3aR**,7aR***)-5-{2-[(4-{3,8-diazabicyclo[3.2.1]octan-3-yl}-7-(8-ethyl-3-hydroxynaphthalen-1-yl)-8-fluoropyrido[4,3-d]pyrimidin-2-yl)oxy]ethyl}-octahydro-1H-pyrrolo[3,2-c]pyridin-1-yl]-1,2-oxazol-5-yl}-3-methylbutanoyl]-4-hydroxy-N-[(1S)-1-[4-(4-methyl-1,3-thiazol-5-yl)phenyl]ethyl]pyrrolidine-2-carboxamide]", "values": [{"measurement": "Dmax", "result": "80 to 100", "unit": "%"}, {"measurement": "DC50", "result": "< 600", "unit": "nM"}]}, {"smiles": "CCc1cccc2cc(O)cc(-c3ncc4c(N5CC6CCC(C5)N6)nc(OCCN5CCC(CC6CN(c7cc(C(C(=O)N8C[C@H](O)C[C@H]8C(=O)N[C@@H](C)c8ccc(-c9scnc9C)cc8)C(C)C)on7)C6)CC5)nc4c3F)c12", "note": "(relative stereo) [Compound 82, (2S,4R)-1-[(2R*)-2-(3-{3-[(1-{2-[(4-{3,8-diazabicyclo[3.2.1]octan-3-yl}-7-(8-ethyl-3-hydroxynaphthalen-1-yl)-8-fluoropyrido[4,3-d]pyrimidin-2-yl)oxy]ethyl}piperidin-4-yl)methyl]azetidin-1-yl}-1,2-oxazol-5-yl)-3-methylbutanoyl]-4-hydroxy-N-[(1S)-1-[4-(4-methyl-1,3-thiazol-5-yl)phenyl]ethyl]pyrrolidine-2-carboxamide]", "values": [{"measurement": "Dmax", "result": "20 to 60", "unit": "%"}, {"measurement": "DC50", "result": "600 to 1000", "unit": "nM"}]}]}
